From publication PMC9381509, “In-vivo pharmacokinetic studies of Dolutegravir loaded spray dried Chitosan nanoparticles as milk admixture for paediatrics infected with HIV” (Scientific Reports, 2022)
Values after ≈ are worked out from the molar mass of the structure shown. Where two headings read alike, the source gives them in different places.

Key:
[1] = In-vitro drug release in 0.1 N HCl media by dialysis bag method; assay type: physicochemical; details: 0.1 N HCl medium pH 1.2, dialysis bag, 37 °C
Experimental: The in vitro drug release study of the DTG-loaded Chitosan NPs was compared with the pure DTG in 0.1 N HCl pH 1.2 by dialysis bag method (Dialysis membrane Himedia, cut-off value—12–14 kDa). About 10 mg of pure drug and a similar dose equivalent amount of nanoparticles were taken for the drug release experiments. The test samples were mixed with 0.5 mL of the corresponding media, placed inside the dialysis bag, and immersed in 10 mL media in a vial. The temperature and magnetic stirring speed of the sample were retained at 37 °C ± 2 °C and 200 rpm, respectively throughout the 24 h study period. At every predetermined time point, the 10 mL samples were collected and immediately replaced with the fresh corresponding medium. The concentration of the drug in each sample was quantified by a UV–Visible spectrophotometer. The UV visible spectrophotometer (UV 1800, Shimadzu, Japan) was initialized with λmax of 260 nm. The absorbance of the test solution was recorded using the quartz cuvette (volume-3.5 mL, path length-1.5 cm) and the calculations were made based on the standard calibration curve by following the Beer Lamberts law. […] The drug release modelling was analysed using DD solver Software[36].

[2] = Organ biodistribution of DTG in mice (HPLC); assay type: in vivo; details: mouse, Balb-C mice
Text: (§1) After validating the developed HPLC method, the same was utilized to quantify the drug present in the plasma and organ (lungs, liver, kidney, heart, brain, and uterus) samples collected at predetermined time points. A total of 114 animals (25–30 g) were acquired from the Central Animal Facility (CAF), SASTRA University, Thanjavur after obtaining the ethical approval from Institutional Animal Ethics Committee (IAEC). The animals were randomly divided into four groups (n = 6) for this study. All animals were housed in individual cages in a temperature-controlled facility. The surgical procedures were approved by IAEC at SASTRA University (585/SASTRA/IAEC/RPP). The experiments were performed following the guidelines issued by the Committee for the Purpose of Control and Supervision of Experiments on animals (CPCSEA), Ministry of Environment and Forest, Government of India and Animal Research: Reporting of In Vivo Experiments (ARRIVE). The 2 groups of mice were orally treated with pure DTG and DTG-loaded Chitosan NPs at the dose equivalent to 10 mg/kg[41] along with milk. The 3rd group of animals was treated with DTG at the same dose through an intravenous route to elucidate the absolute bioavailability and the 4th group of animals was reserved as untreated control for comparison. The blood and organ samples were withdrawn from all the experimental mice at 0.5 h, 3.5 h, 7 h, 14 h, 21 h, and 28 h after euthanizing the animal using CO2 inhalation. The concentration of the drug in each sample was determined by the developed HPLC method, followed by the pharmacokinetic parameters and biodistribution pattern evaluation.

[3] = cited from earlier work
[4] = set-up: method as in earlier work; details: mice, single oral administration as suspension, plasma; ref 27 (Lee et al.); cited from earlier work
[5] = system: blood cells; test: Haematological analysis (complete blood cell count) of treated animals; assay type: in vivo; details: Balb-C mice; for Basophils / Eosinophil / HCT / HGB / Lymphocyte / MCH / MCHC / MCV / MPV / Monocytes / Neutrophil / PCT / PDW / PLT / RBC / RDW-CV / RDW-SD / WBC: blood 28 h after administration
Experimental: The counting was made following the method of Beckman Coulter. It measures the changes in electrical resistance produced by non-conductive particles suspended in an electrolyte. The blood sample from the test animals was collected in EDTA tubes and was further suspended through a small orifice along with an electric current. At the sensing end, the suspended particle displaces its volume of electrolyte which was measured as the voltage pulse by the Beckman Coulter. The height of the voltage pulse in proportion to the volume of the blood cell. The white blood cells were quantified based on the VCS technology, where the individual cell volume (V), conductivity (C), and laser light scatter (S) were measured and the scattergram plotted the cell based on the above measurements.

[6] = In vivo plasma pharmacokinetics in Balb-C mice (HPLC); details: for AUC(0-t): read-out: AUC0–24 h; for k el: read-out: Ke (converted)
Text: The pharmaceutical grade working standards of Dolutegravir were obtained as a gift from MSN Laboratories Hyderabad, India. The standard calibration of the pure drug in the mobile phase (Water: Acetonitrile: Methanol in 20:40:40 ratio with 0.2% formic acid) and mice plasma was plotted using the developed method. The plasma samples of untreated normal Balb/c mice were obtained from the Central Animal Facility, SASTRA Deemed University (Approval ID: 585/IAEC/RPP), and the plasma samples were spiked with known concentrations (1, 2, 3, 4, 5 and 10 µg/mL) of DTG and allowed to incubate at room temperature for 15 min. The detection was carried out at 260 nm with an injection volume of 20 μL, wherein the flow rate of the mobile phase was maintained at 1.0 mL/min at the column temperature of 35 °C. Moreover, the validation of the analytical method was also performed in accordance with the procedure referred to in the International Council on Harmonization (ICH) guidelines.
as §1

[7] = mouse, plasma, 10 mg/kg, intravenous route
[8] = mouse, plasma, oral dose equivalent to 10 mg/kg along with milk
[9] = plasma, oral dose equivalent to 10 mg/kg along with milk

SMILES: C[C@@H]1CCO[C@H]2Cn3cc(C(=O)NCc4ccc(F)cc4F)c(=O)c(O)c3C(=O)N12 [DTG, Dolutegravir]
- time taken to release 80% of the drug (T80) [1]: 20 h
- AUC ([2]; brain, IV, 10 mg/kg, read-out: AUC of biodistribution of DTG in brain): 2400 ± 330 ng·h/mL
- AUC ([2]; brain, oral with milk, 10 mg/kg equivalent, read-out: AUC of biodistribution of DTG in brain): 2600 ± 500 ng·h/mL
- AUC ([2]; heart, IV, 10 mg/kg, read-out: AUC of biodistribution of DTG in heart): 2000 ± 380 ng·h/mL
- AUC ([2]; heart, oral with milk, 10 mg/kg equivalent, read-out: AUC of biodistribution of DTG in heart): 2100 ± 400 ng·h/mL
- AUC ([2]; kidney, IV, 10 mg/kg, read-out: AUC of biodistribution of DTG in kidney): 3800 ± 1300 ng·h/mL
- AUC ([2]; kidney, oral with milk, 10 mg/kg equivalent, read-out: AUC of biodistribution of DTG in kidney): 2200 ± 400 ng·h/mL
- AUC ([2]; liver, IV, 10 mg/kg, read-out: AUC of biodistribution of DTG in liver): 4600 ± 1200 ng·h/mL
- AUC ([2]; liver, oral with milk, 10 mg/kg equivalent, read-out: AUC of biodistribution of DTG in liver): 7200 ± 1400 ng·h/mL
- AUC ([2]; lungs, IV, 10 mg/kg, read-out: AUC of biodistribution of DTG in lungs): 4300 ± 680 ng·h/mL
- AUC ([2]; lungs, oral with milk, 10 mg/kg equivalent, read-out: AUC of biodistribution of DTG in lungs): 2500 ± 400 ng·h/mL
- AUC ([2]; uterus, IV, 10 mg/kg, read-out: AUC of biodistribution of DTG in uterus): 5500 ± 1200 ng·h/mL
- AUC ([2]; uterus, oral with milk, 10 mg/kg equivalent, read-out: AUC of biodistribution of DTG in uterus): 1500 ± 400 ng·h/mL
- aqueous solubility ([3]; 25 °C, no ref printed at the value): 95 µg/mL (≈ 227 µM)
- BCS class ([3]; ref not given): BCS class II
- Cmax [4]: 50000 ng/mL
- Basophils ([5]; IV): 0.01 ± 0.02 10^3/µL
- Eosinophil ([5]; IV): 0.06 ± 0.08 10^3/µL
- HCT ([5]; IV): 55.83 ± 17.67%
- HGB ([5]; IV): 13.70 ± 2.95 g/dL
- Lymphocyte ([5]; IV): 12.83 ± 8.46 10^3/µL
- MCH ([5]; IV): 16.23 ± 1.46 pg
- MCHC ([5]; IV): 25.27 ± 3.33 g/dL
- MCV ([5]; IV): 64.47 ± 2.75 fL
- MPV ([5]; IV): 6.03 ± 0.15 fL
- Monocytes ([5]; IV): 0.10 ± 0.07 10^3/µL
- Neutrophil ([5]; IV): 5.15 ± 1.74 10^3/µL
- PCT ([5]; IV): 0.50 ± 0.18%
- PDW ([5]; IV): 15.23 ± 0.32
- PLT ([5]; IV): 617.00 ± 27.89 10^3/µL
- RBC ([5]; IV): 8.60 ± 2.47 10^6/µL
- RDW-CV ([5]; IV): 15.37 ± 1.11%
- RDW-SD ([5]; IV): 40.60 ± 4.25 fL
- WBC ([5]; IV): 18.14 ± 10.24 10^3/µL
- Basophils ([5]; oral with milk): 0.00 10^3/µL
- Eosinophil ([5]; oral with milk): 0.04 ± 0.03 10^3/µL
- HCT ([5]; oral with milk): 63.77 ± 1.96%
- HGB ([5]; oral with milk): 15.10 ± 0.72 g/dL
- Lymphocyte ([5]; oral with milk): 12.30 ± 1.67 10^3/µL
- MCH ([5]; oral with milk): 15.57 ± 0.15 pg
- MCHC ([5]; oral with milk): 23.67 ± 0.15 g/dL
- MCV ([5]; oral with milk): 65.90 ± 4.10 fL
- MPV ([5]; oral with milk): 5.97 ± .06 fL
- Monocytes ([5]; oral with milk): 0.15 ± 0.06 10^3/µL
- Neutrophil ([5]; oral with milk): 5.32 ± 1.71 10^3/µL
- PCT ([5]; oral with milk): 0.52 ± 0.07%
- PDW ([5]; oral with milk): 15.17 ± 0.15
- PLT ([5]; oral with milk): 674.67 ± 42.91 10^3/µL
- RBC ([5]; oral with milk): 9.69 ± 0.48 10^6/µL
- RDW-CV ([5]; oral with milk): 15.47 ± 1.58%
- RDW-SD ([5]; oral with milk): 41.73 ± .90 fL
- WBC ([5]; oral with milk): 17.81 ± 3.38 10^3/µL
- toxicity to the blood cells (haematology versus untreated control) ([5]; oral and IV administration, no statistically significant difference to control): non-toxic to the blood cells
- Cmax ([6]; Balb-C, mouse, plasma, iv, 10 mg/kg, plasma, 10 mg/kg, intravenous route, read-out: Cmax): 29300 ± 4010 ng/mL
- Cmax ([6]; Balb-C, mouse, plasma, po, 10 mg/kg, plasma, oral dose equivalent to 10 mg/kg along with milk, read-out: Cmax): 29300 ± 4010 ng/mL
- MRT [6, 7]: 12.07 ± 0.05 h
- Tmax [6, 7]: 7 h
- half-life [6, 7]: 10.5 ± 1.1 h
- AUC(0-t) [6, 7]: 411000 ± 91000 ng·h/mL
- clearance ([6]; mouse, plasma, 10 mg/kg, intravenous route, read-out: Clearance (converted)): 8.17 mL/min
- k el [6, 7]: 1.81e-05 s⁻¹
- Vd ([6]; mouse, plasma, 10 mg/kg, intravenous route, read-out: Vd): 1.87 ± 0.81 L/kg
- AUC ([6]; mouse, plasma, 10 mg/kg, oral): 405000 ± 7000 ng·h/mL
- MRT [6, 8]: 10.1 ± 0.93 h
- Tmax [6, 8]: 7 h
- half-life [6, 8]: 11.7 ± 1.6 h
- AUC(0-t) [6, 8]: 405000 ± 7000 ng·h/mL
- k el [6, 8]: 1.64e-05 s⁻¹
- volume of distribution (Vd) ([6]; orally administered): 4.36 ± 0.78 L
- Ka ([6]; plasma, 10 mg/kg, intravenous route): 0.26 h⁻¹
- Cmax [6, 9]: 30150 ± 8060 ng/mL
- Ka [6, 9]: 0.48 h⁻¹
- Vd [6, 9]: 4.36 ± 0.78 L/kg
- clearance [6, 9]: 8 ± 5.5 mL/min
